Test results published in ChEMBL document CHEMBL4813981, “Synthesis and in vitro antibacterial activity of new aminothiazole-oximepiperidone cephalosporins” (2021).

Assays:
Escherichia coli [1] = experiment: Antibacterial activity against ESBLs negative Carbapenem-sensitive Escherichia coli 17-4 assessed as reduction in bacterial growth; assay type: functional
Klebsiella pneumoniae [2] = experiment: Antibacterial activity against ESBLs negative Carbapenem-sensitive Klebsiella pneumoniae 17-19 assessed as reduction in bacterial growth; assay type: functional
Klebsiella pneumoniae [3] = experiment: Antibacterial activity against Carbapenem- resistant Klebsiella pneumoniae KR 15-8 assessed as reduction in bacterial growth in the presence of Avibactam; assay type: functional
Pseudomonas aeruginosa [4] = experiment: Bactericidal activity against Carbapenem- resistant Pseudomonas aeruginosa 17-8 assessed as reduction in bacterial growth; assay type: functional
Pseudomonas aeruginosa [5] = experiment: Bactericidal activity against carbapenem-sensitive Pseudomonas aeruginosa 17-29 assessed as reduction in bacterial growth; assay type: functional
Pseudomonas aeruginosa [6] = experiment: Bactericidal activity against carbapenem-sensitive Pseudomonas aeruginosa 17-7 assessed as reduction in bacterial growth; assay type: functional
Klebsiella pneumoniae [7] = experiment: Bactericidal activity against ESBLs positive Carbapenem-sensitive Klebsiella pneumoniae 17-2 assessed as reduction in bacterial growth; assay type: functional
Pseudomonas aeruginosa [8] = experiment: Bactericidal activity against carbapenem-sensitive Pseudomonas aeruginosa 17-29 assessed as reduction in bacterial growth in the presence of avibactam; assay type: functional
Klebsiella pneumoniae [9] = experiment: Antibacterial activity against Klebsiella pneumoniae ATCC 700603 assessed as reduction in bacterial growth in the presence of Avibactam; assay type: functional
Klebsiella pneumoniae [10] = experiment: Antibacterial activity against ESBLs positive Carbapenem-sensitive Klebsiella pneumoniae 17-6 assessed as reduction in bacterial growth
Pseudomonas aeruginosa [11] = experiment: Bactericidal activity against carbapenem-sensitive Pseudomonas aeruginosa 17-10 assessed as reduction in bacterial growth; assay type: functional
Escherichia coli [12] = experiment: Bactericidal activity against ESBLs positive carbapenem-sensitive Escherichia coli 17-18 assessed as reduction in bacterial growth in the presence of avibactam; assay type: functional
Klebsiella pneumoniae [13] = experiment: Antibacterial activity against Multidrug resistant Klebsiella pneumoniae KR 15-1 assessed as reduction in bacterial growth in the presence of Avibactam; assay type: functional
Pseudomonas aeruginosa [14] = experiment: Bactericidal activity against Carbapenem- resistant Pseudomonas aeruginosa 17-1 assessed as reduction in bacterial growth in the presence of avibactam; assay type: functional
Klebsiella pneumoniae [15] = experiment: Antibacterial activity against ESBLs positive Carbapenem-sensitive Klebsiella pneumoniae 17-14 assessed as reduction in bacterial growth in the presence of Avibactam; assay type: functional
Klebsiella pneumoniae [16] = experiment: Antibacterial activity against Carbapenem- resistant Klebsiella pneumoniae KR 15-6 assessed as reduction in bacterial growth in the presence of Avibactam; assay type: functional
Escherichia coli [17] = experiment: Antibacterial activity against ESBLs negative Carbapenem--sensitive Escherichia coli 17-20 assessed as reduction in bacterial growth
Pseudomonas aeruginosa [18] = experiment: Antibacterial activity against Carbapenem- sensitive Pseudomonas aeruginosa 17-11 assessed as reduction in bacterial growth in the presence of Avibactam; assay type: functional
Pseudomonas aeruginosa [19] = experiment: Antibacterial activity against Carbapenem- sensitive Pseudomonas aeruginosa 17-21 assessed as reduction in bacterial growth in the presence of Avibactam; assay type: functional
Klebsiella pneumoniae [20] = experiment: Antibacterial activity against ESBLs positive Carbapenem-sensitive Klebsiella pneumoniae 17-4 assessed as reduction in bacterial growth in the presence of Avibactam; assay type: functional
Escherichia coli [21] = experiment: Antibacterial activity against Escherichia coli 15-4 overexpressing extended spectrum beta-lactamases assessed as reduction in bacterial growth; assay type: functional
Acinetobacter baumannii [22] = experiment: Antibacterial activity against Multidrug resistant Acinetobacter baumannii AR 15-4 assessed as reduction in bacterial growth; assay type: functional
Klebsiella pneumoniae [23] = experiment: Bactericidal activity against Carbapenem- resistant Klebsiella pneumoniae KR 15-7 assessed as reduction in bacterial growth; assay type: functional
Pseudomonas aeruginosa [24] = experiment: Bactericidal activity against carbapenem-sensitive Pseudomonas aeruginosa 17-9 assessed as reduction in bacterial growth; assay type: functional
Klebsiella pneumoniae [25] = experiment: Antibacterial activity against ESBLs positive Carbapenem-sensitive Klebsiella pneumoniae 17-7 assessed as reduction in bacterial growth in the presence of Avibactam; assay type: functional
Klebsiella pneumoniae [26] = experiment: Antibacterial activity against Multidrug resistant Klebsiella pneumoniae KR 15-2 assessed as reduction in bacterial growth in the presence of Avibactam; assay type: functional
Klebsiella pneumoniae [27] = experiment: Bactericidal activity against Carbapenem- resistant Klebsiella pneumoniae KR 15-6 assessed as reduction in bacterial growth; assay type: functional
Acinetobacter baumannii [28] = experiment: Antibacterial activity against Carbapenem- resistant Acinetobacter baumannii 17-3 assessed as reduction in bacterial growth in the presence of Avibactam; assay type: functional
Escherichia coli [29] = experiment: Antibacterial activity against ESBLs positive Carbapenem-sensitive Escherichia coli 17-18 assessed as reduction in bacterial growth in the presence of Avibactam; assay type: functional
Pseudomonas aeruginosa [30] = experiment: Antibacterial activity against Carbapenem- sensitive Pseudomonas aeruginosa 17-29 assessed as reduction in bacterial growth in the presence of Avibactam; assay type: functional
Klebsiella pneumoniae [31] = experiment: Antibacterial activity against ESBLs positive Carbapenem-sensitive Klebsiella pneumoniae 17-12 assessed as reduction in bacterial growth
Enterococcus faecalis = experiment: Antibacterial activity against Enterococcus faecalis ATCC 51299 assessed as reduction in bacterial growth in the presence of Avibactam; assay type: functional
Klebsiella aerogenes [32] = experiment: Bactericidal activity against Enterobacter aerogenes 15-4 assessed as reduction in bacterial growth in the presence of avibactam; assay type: functional
Klebsiella pneumoniae [33] = experiment: Bactericidal activity against Carbapenem- resistant Klebsiella pneumoniae KR 15-8 assessed as reduction in bacterial growth in the presence of avibactam; assay type: functional
Klebsiella pneumoniae [34] = experiment: Antibacterial activity against ESBLs positive Carbapenem-sensitive Klebsiella pneumoniae 17-6 assessed as reduction in bacterial growth in the presence of Avibactam; assay type: functional
Enterobacter cloacae [35] = experiment: Bactericidal activity against Enterobacter cloacae 17-10 assessed as reduction in bacterial growth in the presence of avibactam; assay type: functional
Acinetobacter baumannii [36] = experiment: Antibacterial activity against Multidrug resistant Acinetobacter baumannii AR 15-2 assessed as reduction in bacterial growth; assay type: functional
Escherichia coli [37] = experiment: Antibacterial activity against Escherichia coli ATCC 35218 assessed as reduction in bacterial growth in the presence of Avibactam; assay type: functional
Enterobacter cloacae [38] = experiment: Bactericidal activity against Enterobacter cloacae 17-9 assessed as reduction in bacterial growth in the presence of avibactam; assay type: functional
Klebsiella pneumoniae [39] = experiment: Antibacterial activity against ESBLs positive Carbapenem-sensitive Klebsiella pneumoniae 17-15 assessed as reduction in bacterial growth in the presence of Avibactam; assay type: functional
Klebsiella aerogenes [40] = experiment: Antibacterial activity against Enterobacter aerogenes 17-5 assessed as reduction in bacterial growth in the presence of Avibactam; assay type: functional
Escherichia coli [41] = experiment: Antibacterial activity against ESBLs positive Carbapenem-sensitive Escherichia coli 17-10 assessed as reduction in bacterial growth in the presence of Avibactam; assay type: functional
Acinetobacter baumannii [42] = experiment: Antibacterial activity against Carbapenem- resistant Acinetobacter baumannii 17-10 assessed as reduction in bacterial growth in the presence of Avibactam; assay type: functional
Escherichia coli [43] = experiment: Antibacterial activity against ESBLs negative Carbapenem-sensitive Escherichia coli 17-1 assessed as reduction in bacterial growth in the presence of Avibactam; assay type: functional
Klebsiella pneumoniae [44] = experiment: Bactericidal activity against ESBLs positive Carbapenem-sensitive Klebsiella pneumoniae 17-2 assessed as reduction in bacterial growth in the presence of avibactam; assay type: functional
Escherichia coli [45] = experiment: Bactericidal activity against ESBLs positive Carbapenem-sensitive Escherichia coli 17-18 assessed as reduction in bacterial growth; assay type: functional
Klebsiella pneumoniae [46] = experiment: Bactericidal activity against ESBLs positive Carbapenem-sensitive Klebsiella pneumoniae 17-12 assessed as reduction in bacterial growth in the presence of avibactam; assay type: functional

C[C@@H](O)[C@H]1C(=O)N2C(C(=O)O)=C(S[C@@H]3CN[C@H](C(=O)N(C)C)C3)[C@H](C)[C@H]12 [MEROPENEM]
< 0.03 µg/mL: MIC (Escherichia coli [1]) | MIC (Klebsiella pneumoniae [2])

CC(C)(O/N=C(\C(=O)N[C@@H]1C(=O)N2C(C(=O)[O-])=C(C[n+]3ccccc3)CS[C@H]12)c1csc(N)n1)C(=O)O [CEFTAZIDIME]
4 µg/mL: MIC (Klebsiella pneumoniae [3]) | MBC (Pseudomonas aeruginosa [5]) | MBC (Klebsiella pneumoniae [7]) | MBC (Pseudomonas aeruginosa [8]) | MIC (Klebsiella pneumoniae [9]) | MIC (Klebsiella pneumoniae [20]) | MIC (Klebsiella pneumoniae [25]) | MIC (Klebsiella pneumoniae [31]) | MBC (Klebsiella pneumoniae [33]) | MIC (Acinetobacter baumannii [42])
> 2 µg/mL: MIC (Escherichia coli [17]) | MBC (Enterobacter cloacae [38])
0.06 µg/mL: MIC (Escherichia coli [37])
64 µg/mL: MBC (Pseudomonas aeruginosa [4]) | MBC (Klebsiella pneumoniae [27])
> 64 µg/mL: MIC (Acinetobacter baumannii [22]) | MBC (Klebsiella pneumoniae [23]) | MIC (Enterococcus faecalis) | MIC (Acinetobacter baumannii [36])
16 µg/mL: MIC (Klebsiella pneumoniae [10]) | MBC (Pseudomonas aeruginosa [14]) | MIC (Escherichia coli [21])
0.25 µg/mL: MBC (Klebsiella aerogenes [32]) | MBC (Klebsiella pneumoniae [44])
2 µg/mL: MIC (Klebsiella pneumoniae [13]) | MIC (Klebsiella pneumoniae [15]) | MIC (Klebsiella pneumoniae [26]) | MBC (Escherichia coli [45])
0.5 µg/mL: MBC (Escherichia coli [12]) | MIC (Pseudomonas aeruginosa [18]) | MBC (Pseudomonas aeruginosa [24]) | MIC (Escherichia coli [29]) | MIC (Pseudomonas aeruginosa [30]) | MIC (Klebsiella pneumoniae [34]) | MIC (Klebsiella aerogenes [40]) | MIC (Escherichia coli [41]) | MIC (Escherichia coli [43])
1 µg/mL: MBC (Pseudomonas aeruginosa [6]) | MIC (Klebsiella pneumoniae [16]) | MIC (Pseudomonas aeruginosa [19]) | MBC (Enterobacter cloacae [35]) | MIC (Klebsiella pneumoniae [39]) | MBC (Klebsiella pneumoniae [46])
8 µg/mL: MBC (Pseudomonas aeruginosa [11]) | MIC (Acinetobacter baumannii [28])

Nc1nc(/C(=N/OCc2cc(=O)c(O)cn2O)C(=O)N[C@@H]2C(=O)N3C(C(=O)O)=CCS[C@H]23)cs1
≤ 0.03 µg/mL: MIC (Klebsiella pneumoniae [2])
32 µg/mL: MBC (Escherichia coli [45])
0.06 µg/mL: MIC (Escherichia coli [41])
> 2 µg/mL: MIC (Escherichia coli [17])
16 µg/mL: MBC (Pseudomonas aeruginosa [24]) | MIC (Acinetobacter baumannii [28]) | MBC (Klebsiella pneumoniae [33]) | MIC (Acinetobacter baumannii [42])
> 64 µg/mL: MIC (Escherichia coli [21]) | MIC (Acinetobacter baumannii [22]) | MBC (Klebsiella pneumoniae [23]) | MIC (Enterococcus faecalis) | MIC (Acinetobacter baumannii [36])
8 µg/mL: MBC (Pseudomonas aeruginosa [5]) | MBC (Pseudomonas aeruginosa [8]) | MBC (Pseudomonas aeruginosa [11])
1 µg/mL: MBC (Pseudomonas aeruginosa [6]) | MBC (Escherichia coli [12]) | MIC (Klebsiella pneumoniae [13]) | MIC (Klebsiella pneumoniae [26]) | MIC (Pseudomonas aeruginosa [30]) | MBC (Klebsiella aerogenes [32]) | MBC (Enterobacter cloacae [35])
0.25 µg/mL: MIC (Escherichia coli [1]) | MIC (Klebsiella pneumoniae [34]) | MIC (Escherichia coli [37]) | MIC (Escherichia coli [43])
64 µg/mL: MBC (Pseudomonas aeruginosa [4]) | MIC (Klebsiella pneumoniae [9]) | MBC (Pseudomonas aeruginosa [14]) | MBC (Klebsiella pneumoniae [27])
0.125 µg/mL: MIC (Klebsiella pneumoniae [39]) | MBC (Klebsiella pneumoniae [44]) | MBC (Klebsiella pneumoniae [46])
0.5 µg/mL: MIC (Klebsiella pneumoniae [10]) | MIC (Klebsiella pneumoniae [15]) | MIC (Klebsiella pneumoniae [16]) | MIC (Escherichia coli [29])
2 µg/mL: MBC (Klebsiella pneumoniae [7]) | MIC (Pseudomonas aeruginosa [18]) | MIC (Pseudomonas aeruginosa [19]) | MIC (Klebsiella pneumoniae [20]) | MIC (Klebsiella pneumoniae [25]) | MIC (Klebsiella pneumoniae [31]) | MBC (Enterobacter cloacae [38]) | MIC (Klebsiella aerogenes [40])
4 µg/mL: MIC (Klebsiella pneumoniae [3])
